Patent US20170246194A1, “Acetaminophen-Containing Analgesic Formulations With Reduced Hepatotoxicity” (Purdue Pharma L.P., priority 2014, published 2017)

Columns and labels:
male C3HeB/FeJ mice = assay: Toxicity in mice: acetaminophen-induced liver injury, plasma ALT activity; type: in vivo; conditions: fasted mice; for protection of the liver against acetaminophen damage (maximal ALT elevation): cimetidine 20% and/or methionine 30% of the acetaminophen dose
Experimental: This example is performed as described in Saito, Hepatology, 51(1):246, 2010, which is incorporated by reference herein.
At selected times after acetaminophen treatment, groups of animals are killed by way of cervical dislocation under anesthesia. Blood is drawn from the vena cava into heparinized syringes and centrifuged. The plasma is used for determination of alanine aminotransferase (ALT) activities. Plasma ALT activities are determined and expressed as international units per liter.
After establishing the model in the pilot phase, five experimental groups are studied. The groups receive vehicles containing the ingredients noted in Table B. If the methionine or cimetidine is ineffective or is fully protective, the doses are adjusted and the experiment repeated until the relative contribution of each relative to the combination is determined.
The outcome is maximal ALT elevation. Data are expressed as the mean±standard error. Comparison between groups is performed analysis of variance, or alternative non-parametric procedures if the data is not normally distributed. P<0.05 is considered significant.

volunteers = conditions: human volunteers, given with acetaminophen 4 grams a day
Description: All subjects participate in an initial multiple dose study of 1 gram of acetaminophen given four times a day (four grams a day), protected by twice a day transaminase determinations. […] Subjects with no elevation are terminated from the study. Subjects rest for three weeks after the first phase and then return for the second phase.
Subjects dose at 4 grams of acetaminophen a day. They have twice daily blood samples for serum transaminases, and proceed to the next day's dosing only if their most recent transaminase values are no more than 3 times the upper limit of normal.
The outcome variable is maximal transaminase elevations for each subject relative to baseline tested by ANOVA for each formulation. The test article is hepato-protective if there is a significant (P<0.05) difference in outcome for the formulation.
Subjects with transaminase elevations are followed at intervals to ensure that their values return to normal.

[1] = normally, in man; cited from earlier work

SMILES | protection of the liver against acetaminophen damage (maximal ALT elevation) (male C3HeB/FeJ mice) | serious adverse effects (volunteers) | liver injury (maximal ALT elevation) (male C3HeB/FeJ mice; acetaminophen alone, intraperitoneal single dose) | ingested dose metabolized to the non-toxic sulfate or glucuronide [1] [%]
CSCC[C@H](N)C(=O)O [methionine] | protected against damage | no additional serious adverse effects | – | –
CC(=O)Nc1ccc(O)cc1 [acetaminophen, N-acetyl-p-aminophenol] | – | – | causes liver injury | 96
CN/C(=N/CCSCc1nc[nH]c1C)NC#N [cimetidine] | protected against damage | no additional serious adverse effects | – | –
